ChEMBL document CHEMBL3994582, “A2B adenosine receptor antagonists: Design, synthesis and biological evaluation of novel xanthine derivatives” (Eur J Med Chem, 2017)

Assays:
Adenosine receptor A2b = molecular target: T1, Adenosine receptor A2b (Homo sapiens, UniProt P29275); assay: Displacement of [3H]-MRS-1754 from human adenosine receptor A2b expressed in HEK293 cell membranes after 90 mins by liquid scintillation counting method
T1 sequence (P29275 whole entry): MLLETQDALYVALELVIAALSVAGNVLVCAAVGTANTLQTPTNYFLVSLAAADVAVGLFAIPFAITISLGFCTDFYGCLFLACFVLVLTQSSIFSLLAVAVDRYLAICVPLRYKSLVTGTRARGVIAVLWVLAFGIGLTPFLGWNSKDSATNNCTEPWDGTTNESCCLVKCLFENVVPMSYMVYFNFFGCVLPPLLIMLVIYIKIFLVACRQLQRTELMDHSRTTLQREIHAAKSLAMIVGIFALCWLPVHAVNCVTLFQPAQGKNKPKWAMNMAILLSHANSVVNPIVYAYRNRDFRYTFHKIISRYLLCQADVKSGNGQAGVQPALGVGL

Adenosine receptor A2a = Adenosine receptor A2a (Homo sapiens, UniProt P29274); assay: Displacement of [3H]-ZM-241385 from human adenosine receptor A2a expressed in HEK293 cell membranes at 0.1 uM after 90 mins by liquid scintillation counting method relative to control
Liver [1] = assay: Metabolic stability in mouse liver microsomes assessed as metabolic rate per mg protein preincubated for 5 mins followed by NADPH addition measured up to 30 mins by LC-MS/MS analysis; assay type: ADME, microsome; conditions: 0.5 h
Liver [2] = assay: Metabolic stability in human liver microsomes assessed as metabolic rate per mg protein preincubated for 5 mins followed by NADPH addition measured up to 30 mins by LC-MS/MS analysis; assay type: ADME, microsome; conditions: 0.5 h
[3] = molecular target: T2, Adenosine receptor A3 (Homo sapiens) (UniProt P0DMS8); assay: Displacement of [3H]-HEM-ADO from human adenosine receptor A3 expressed in HEK293 cell membranes at 1 uM after 90 mins by liquid scintillation counting method relative to control
T2 sequence (whole entry): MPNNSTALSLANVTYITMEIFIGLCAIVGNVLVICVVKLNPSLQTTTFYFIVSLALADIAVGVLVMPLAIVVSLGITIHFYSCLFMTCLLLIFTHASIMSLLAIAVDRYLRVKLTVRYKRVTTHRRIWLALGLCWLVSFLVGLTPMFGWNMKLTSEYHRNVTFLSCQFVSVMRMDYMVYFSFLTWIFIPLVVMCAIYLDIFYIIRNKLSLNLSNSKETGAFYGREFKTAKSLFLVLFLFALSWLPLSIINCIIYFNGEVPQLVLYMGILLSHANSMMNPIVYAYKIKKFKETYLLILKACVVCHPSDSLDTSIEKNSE

[4] = molecular target: T3, Adenosine receptor A1 (Homo sapiens) (UniProt P30542); assay: Displacement of [3H]DPCPX from human adenosine receptor A1 expressed in HEK293 cell membranes at 0.1 uM after 90 mins by liquid scintillation counting method relative to control
T3 sequence (whole entry): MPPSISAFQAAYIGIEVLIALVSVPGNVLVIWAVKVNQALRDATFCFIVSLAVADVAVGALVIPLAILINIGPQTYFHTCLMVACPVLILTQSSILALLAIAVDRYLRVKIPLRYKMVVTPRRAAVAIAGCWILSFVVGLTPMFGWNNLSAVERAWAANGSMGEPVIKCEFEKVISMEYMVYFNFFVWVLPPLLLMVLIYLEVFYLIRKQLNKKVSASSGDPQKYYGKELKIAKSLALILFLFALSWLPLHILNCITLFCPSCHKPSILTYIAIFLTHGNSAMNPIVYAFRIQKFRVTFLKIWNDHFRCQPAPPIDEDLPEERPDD

Chain of Adenosine receptor A2a (P29274 whole entry): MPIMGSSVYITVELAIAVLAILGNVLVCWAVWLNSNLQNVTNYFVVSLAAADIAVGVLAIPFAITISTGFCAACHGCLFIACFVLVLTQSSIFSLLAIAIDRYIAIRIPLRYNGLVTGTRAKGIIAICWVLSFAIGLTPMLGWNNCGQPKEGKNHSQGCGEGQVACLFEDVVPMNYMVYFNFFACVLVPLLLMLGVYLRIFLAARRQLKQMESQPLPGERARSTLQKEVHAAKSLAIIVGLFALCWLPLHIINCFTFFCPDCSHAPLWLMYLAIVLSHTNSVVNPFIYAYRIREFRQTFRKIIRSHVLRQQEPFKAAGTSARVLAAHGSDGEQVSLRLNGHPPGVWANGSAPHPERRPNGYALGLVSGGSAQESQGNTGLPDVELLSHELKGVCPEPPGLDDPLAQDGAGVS

Compound | Ki (Adenosine receptor A2b) [nM] | inhibition (Adenosine receptor A2a) [%] | Drug metabolism (Liver [1]) [nmol/min/mg] | Drug metabolism (Liver [2]) [nmol/min/mg] | inhibition [3] [%] | inhibition [4] [%]
CCCn1c(=O)c2[nH]c(-c3cnn(CC4CCN(c5cccc(OC)c5)C4)c3)nc2n(CCC)c1=O (stereo not given) | 13.7 | 69 | 0.67 | 0.78 | 12 | 43
CCCn1c(=O)c2[nH]c(-c3cnn(CC4CC(=O)N(c5cccc(OC(F)(F)F)c5)C4)c3)nc2n(CC)c1=O (stereo not given) | 17.5 | 16 | 0.25 | 0.4 | 3 | 15
CCCn1c(=O)c2[nH]c(-c3cnn(CC4CC(=O)N(c5cccc(F)c5)C4)c3)nc2n(CC)c1=O (stereo not given) | 24 | 37 | 0.29 | 0.06 | 0 | 30
CCCn1c(=O)c2[nH]c(-c3cc(OCC4CC(=O)N(c5ccc(F)cc5)C4)no3)nc2n(CCC)c1=O (stereo not given) | 210 | 0 |  |  | 7 | 0
CCCn1c(=O)c2[nH]c(-c3cnn(CC4CC(=O)N(c5cccc(F)c5)C4)c3)nc2n(CCC)c1=O (stereo not given) | 41 | 68 | 0.35 | 0.02 | 17 | 32
CCCn1c(=O)c2[nH]c(-c3cnn(CC4CC(=O)N(c5ccc(C(=O)O)cc5)C4)c3)nc2n(CCC)c1=O (stereo not given) | 77 |  |  |  |  | 
CCCn1c(=O)c2[nH]c(-c3cnn(CC4CC(=O)N(c5ccc(C#N)cc5)C4)c3)nc2n(CCC)c1=O (stereo not given) | 23 | 20 | 0 | 0.15 | 2 | 18
CCCn1c(=O)c2[nH]c(-c3cnn(CC4CCN(c5ccc(OC(F)(F)F)cc5)C4)c3)nc2n(CCC)c1=O (stereo not given) | 14 | 26 | 0.15 | 0.16 | 2 | 23
CCCn1c(=O)c2[nH]c(-c3cc(OCC4CC(=O)N(c5cccc(C(F)(F)F)c5)C4)no3)nc2n(CCC)c1=O (stereo not given) | 69 | 0 |  |  | 5 | 0
CCCn1c(=O)c2[nH]c(-c3cnn(CC4CCN(c5ccc(OC)cc5)C4)c3)nc2n(CCC)c1=O (stereo not given) | 13 | 53 | 0.43 | 0.37 | 3 | 21
CCCn1c(=O)c2[nH]c(-c3cc(OCC4CC(=O)N(c5cccc(F)c5)C4)no3)nc2n(CCC)c1=O (stereo not given) | 90 |  |  |  |  | 
CCCn1c(=O)c2[nH]c(-c3cnn(CC4CCN(c5cccc(F)c5)C4=O)c3)nc2n(CCC)c1=O (stereo not given) | 43 |  |  |  |  | 

The next compounds have a lower Ki (Adenosine receptor A2b) than those just listed; values first:

Ki (Adenosine receptor A2b) [nM] | inhibition (Adenosine receptor A2a) [%] | Drug metabolism (Liver [1]) [nmol/min/mg] | Drug metabolism (Liver [2]) [nmol/min/mg] | inhibition [3] [%] | inhibition [4] [%] | Compound
10.7 | 56 | 0.23 | 0.11 | 0 | 45 | CCCn1c(=O)c2[nH]c(-c3cnn(CC(=O)N4CCN(c5ccc(F)cc5F)CC4)c3)nc2n(CCC)c1=O
0.9 | 71 |  |  | 11 | 53 | CCCn1c(=O)c2[nH]c(-c3cnn(CC(=O)N4CCN(c5ccc(C(F)(F)F)cc5)CC4)c3)nc2n(CCC)c1=O
4.5 | 23 | 0.49 | 0.12 | 0 | 18 | CCCn1c(=O)c2[nH]c(-c3cnn(CC4CC(=O)N(c5cccc(C(F)(F)F)c5)C4)c3)nc2n(CC)c1=O (stereo not given)
5 | 58 |  |  | 11 | 58 | CCCn1c(=O)c2[nH]c(-c3cnn(CC(=O)N4CCN(c5ccc(C)cc5)CC4)c3)nc2n(CCC)c1=O
1.8 | 72 |  |  | 17 | 56 | CCCn1c(=O)c2[nH]c(-c3cnn(CC(=O)N4CCN(c5ccc(F)c(Cl)c5)CC4)c3)nc2n(CCC)c1=O
10.7 | 0 | 0.46 | 0.18 | 0 | 29 | CCCn1c(=O)c2[nH]c(-c3cnn(CC4CC(=O)N(c5cccc(C)c5)C4)c3)nc2n(CCC)c1=O (stereo not given)
4 | 24 | 0.24 | 0.13 | 0 | 23 | CCCn1c(=O)c2[nH]c(-c3cnn(CC4CC(=O)N(c5ccc(OC(F)(F)F)cc5)C4)c3)nc2n(CCC)c1=O (stereo not given)
3.6 | 57 | 0 | 0.01 | 2 | 38 | CCCn1c(=O)c2[nH]c(-c3cnn(CC4CCN(c5cccc(C(F)(F)F)c5)C4)c3)nc2n(CCC)c1=O (stereo not given)
1.2 | 60 | 0.22 | 0.19 | 27 | 12 | CCCn1c(=O)c2[nH]c(-c3cnn(CC(O)C4CC(=O)N(c5cccc(C(F)(F)F)c5)C4)c3)nc2n(CCC)c1=O (stereo not given)
6.5 | 48 | 0.61 | 0.18 | 31 | 25 | CCCn1c(=O)c2[nH]c(-c3cnn(CC4CC(=O)N(c5cccc(C(F)(F)F)c5)C4)c3)nc2n(CCC)c1=O (stereo not given)
12 | 51 | 0.38 | 0.66 | 2 | 26 | CCCn1c(=O)c2[nH]c(-c3cnn(CC4CCN(c5ccc(C)cc5)C4)c3)nc2n(CCC)c1=O (stereo not given)
6 | 30 | 0.34 | 0.2 | 17 | 58 | CCCn1c(=O)c2[nH]c(-c3cnn(CC4CCN(c5cccc(C(F)(F)F)c5)C4=O)c3)nc2n(CCC)c1=O (stereo not given)
9 | 49 | 0.57 | 0.23 | 0 | 20 | CCCn1c(=O)c2[nH]c(-c3cnn(CC4CC(=O)N(c5cccc(OC(F)(F)F)c5)C4)c3)nc2n(CCC)c1=O (stereo not given)
8 | 37 | 0.25 |  | 0 | 33 | CCCn1c(=O)c2[nH]c(-c3cnn(CC4CC(=O)N(c5ccc(C)cc5)C4)c3)nc2n(CCC)c1=O (stereo not given)
